According to paper PMC4880976, “Pharmacologic rationale for the NK1R antagonist, aprepitant as adjunctive therapy in HIV” (Journal of Translational Medicine, 2016):
Entries after “also recorded” stand apart in the source; their conditions may differ. Like-named read-outs stand apart in the source and are kept apart here.

Legend:
[1] = tested on: HIV-1 Bal; test: HIV infection of monocyte-derived macrophages (MDM) ex vivo, HIV gag mRNA by real time RT-PCR; assay type: cell-based
Method: Blood samples were collected from the antecubital vein and monocytes were isolated as described below.
For HIV infectivity experiments PBMC were isolated from freshly collected blood samples using Ficoll-Paque (GE Healthcare, Uppsala, Sweden) gradient. Monocytes were purified by adhesion as described [26, 27] and cultured in 48-well plates at a density of 0.25 × 10^6/0.5 ml/well in DMEM supplemented with 10 % FBS for 7 days before HIV-1 infection. Macrophages from each subject were exposed to four experimental conditions (none, 1, 5 and 10 µM of aprepitant). 7-day-cultured MDM were incubated with aprepitant for 2 h before infection with HIV-1 Bal (NIH AIDS Reagent Program), 5 ng/well based on p24 antigen assay, corresponding to a MOI of 0.02 determined using MAGI cells expressing CD4 and CCR5 (NIH AIDS Reagent Program). Cells were incubated with virus overnight, and then extensively washed to remove unbound virus. The culture medium and the aprepitant were replaced twice weekly. At day 7 post HIV infection, cellular RNA was extracted from the MDM for assessment of HIV gag mRNA expression using real time RT-PCR assays.
Total RNA was extracted from MDM cells using RNeasy kit (Qiagen), and the potential DNA contamination was eliminated by on-column DNase digestion as instructed by the manufacturer (Qiagen). Total RNA (1 µg) was reverse transcribed using AffinityScript QPCR cDNA Synthesis kit ([sequence], Cedar Creek, TX) with random primer as instructed by the manufacture. 1 µl of the resulting cDNA was used as a template for real-time PCR amplification. […] Corresponding fragments of assayed genes cloned in pGEM-T vector (Promega) were used to generate standard curves.
Following differentiation for 7 days MDM were infected with HIV Bal. Macrophages from each subject were exposed to all four experimental conditions as indicated (1, 5 and 10 μM concentrations of aprepitant). Control, HIV infected MDM were treated with aprepitant vehicle, 0.001 % DMSO. RNA was collected 7 days after infection and assayed for expression of HIV GAG by real time RT PCR using the GAPDH housekeeping gene for normalization. GAG expression in control (non-treated) cultures were designated as 100 %; *p < 0.0001 between all groups including control were obtained through one-way ANOVA with post-test analysis by Bonferroni’s Multiple Comparison Test indicating significant difference between all groups in pair wise comparison. b Aprepitant added to DMEM 10 % FBS media or MDM cultures at a concentration of 1 μM (0.53 μg/ml) on day 0 and measured on days 0, 1, 2, 3 and 7. Results are presented as mean ± SD for three independent experiments

[2] = Protein binding by ultrafiltration in human and rhesus macaque plasma and FBS; assay type: in vitro ADME; details: three experiments
Method: These experiments were conducted to assess the linkage between in vitro and in vivo exposure targets in order to more accurately project clinical dose requirements for aprepitant. Protein binding was assessed via ultrafiltration and detection of aprepitant in various biofluids was conducted via LC–MS/MS.
Ultrafiltration units (CorningR Spin-X UF; MWCO 10 K) and filtrate collection tubes were obtained from Corning (Tewksbury, MA). Control human plasma was obtained by centrifugation of blood obtained from CHOP blood bank. Stock solutions of aprepitant in methanol were added to human plasma (1 %, v/v) to provide plasma samples at a nominal concentration of 10 μg/mL. This was further diluted with human plasma to provide 5, 2 and 0.5 μg/mL solutions. Similarly, aprepitant at above four concentration were also prepared in 10 % FBS in DMEM or 10 % FBS in water. Samples were incubated at 37 °C for 30 min to ensure equilibrium was established. Following incubation, an aliquot of sample was removed for determination of the drug concentration post incubation. Triplicate 500 μL aliquots of the samples were added to the sample reservoir of the UF unit with filtrate collection tubes. All ultrafiltration units were centrifuged at 13,000 rpm (15,000×g) for 15 min at 4 °C. […] Internal standard solution (500 μL) was added to each sample analyzed by the validated LC–MS/MS method described above. […]

[3] = tested on: SIVmac251; test: SIV infectivity study, plasma viral load; assay type: in vivo, rhesus macaques (Macaca mulatta)
Method: (§1) For infectivity studies, eight male rhesus macaques were used. Animals were infected intravenously with 50 ng p27 of SIV. Following infection four animals were treated with aprepitant once daily dosing of 125 mg aprepitant administered orally for a year and four infected animals were left untreated. Aprepitant (commercial capsule contents) was mixed and co-administered with various food preparations to ensure dosing compliance. Food preparations included peanut butter, marshmallow cream and honey, disguised in non-citrus fruit. While formal stability and delivery experiments were not conducted, pilot bioavailability studies confirmed the robustness of aprepitant exposures following food co-administration. The improved bioavailability with food-based dosing in conjunction with oral aprepitant is consistent with preclinical experiments which project simulated exposures based on the commercial nanosized aprepitant formulation. In this evaluation, in silico model predictions were similar to observed in vivo pharmacokinetic data in the fed state; other studies have shown the benefit of complexation strategies to enhance aprepitant solubility/dissolution [30, 31].
Blood was collected for PK sampling on days 1, 7 and 14 and trough samples were collected prior to dosing on days 3, 5, 7, 11 and 13. […] Videotaped recordings were analyzed using Observer XT® (Noldus IT). […]

[4] = tested on: anxiety-related behavior; test: Anxiety-related behavior in SIV infected rhesus macaque (video recordings); assay type: in vivo; details: 125 mg/day
Method: Blood was collected for PK sampling on days 1, 7 and 14 and trough samples were collected prior to dosing on days 3, 5, 7, 11 and 13. […] Videotaped recordings were analyzed using Observer XT® (Noldus IT). Animals were sacrificed and necropsied after 1 year.
Fig. 4 Anxiety-related behavior* time course in SIV infected rhesus macaque receiving aprepitant at 125 mg/day or placebo. *Anxiety-related behavior was calculated based on the following parameters: body shake, hypervigilant scanning, self-licking and self-grooming, scratching, unresponsive inactivity and yawning.

[5] = parameters: species or system Rhesus macaques; details: rhesus monkey, in vivo
Method: as §1, with “Following infection four animals were treated with aprepitant once daily dosing of 125 mg aprepitant administered orally for a year and four infected animals were left untreated.” left out, “31]. […] Videotaped recordings were analyzed using Observer XT® (Noldus IT). Animals were sacrificed and necropsied after 1 year.” for “31].”

[6] = tested on: CD163 cleavage in human monocytes; test: sCD163 release from human monocytes, ELISA; assay type: cell-based; details: aprepitant 10 μM 30 min before SP 5 μM 60 min, p = 0.004
Method: sCD163 was measured by ELISA (Trillium Diagnostics, Brewer, Maine, USA) according to manufacturer’s recommendations.
Fig. 7 SP induces cleavage of CD163 in monocytes. sCD163 was measured by ELISA in the supernatant of freshly isolated human monocytes treated with SP and aprepitant as indicated. a Time course of cells treated with varying doses of SP as indicated. *p < 0.001 control versus 5 and 10 μM of SP. b Cells were pre-incubated with aprepitant (10 μM) for 30 min and then treated with SP (5 μM) for 60 min. *p < 0.001 SP versus control, p = 0.004 SP versus SP + aprepitant. Results are presented as mean ± SD from three independent experiments

[7] = tested on: pro-inflammatory markers; parameters: method as in PMID 25915168; details: 375 mg daily, 2 weeks, HIV positive individuals; cited from earlier work
[8] = tested on: NK1R; parameters: method as in PMID 12562139, PMID 15121485; details: 165 mg dose, PET; cited from earlier work

C[C@@H](O[C@H]1OCCN(Cc2n[nH]c(=O)[nH]2)[C@H]1c1ccc(F)cc1)c1cc(C(F)(F)F)cc(C(F)(F)F)c1 [aprepitant] showed an IC50 ([1]; Human immunodeficiency virus 1, BAL, Macrophage, read-out: free drug IC50 concentration) of about 0.00265 µg/mL, an IC50 ([1]; Human immunodeficiency virus 1, BAL, Macrophage, read-out: total IC50 concentration) of 2.65 µg/mL and an IC50 ([1]; Human immunodeficiency virus 1, Macrophage, 168 h, human MDM, HIV-1 Bal, gag mRNA day 7, total concentration in DMEM 10 % FBS, read-out: IC50 (ED50 in abstract) for inhibition of HIV infection in MDM) of about 5 µM. The IC90 ([1]; Human immunodeficiency virus 1, Macrophage, human MDM, HIV-1 Bal, total concentration, read-out: IC90 for inhibition of HIV infection in MDM) was about 10 µM, the “binding to human and rhesus macaque plasma and FBS” value [2] was 99.79–99.95% and the “reduction of viral load” value ([3]; 125 mg once daily oral for 12 months, SIV-infected rhesus, weeks 12-52) was “approximately tenfold”. The “reduction in plasma levels of viral RNA versus non-treated controls” value ([3]; 125 mg/day oral, 3–12 month observation period) was 1 log, the “anxiety-related behavior versus control” value ([4]; after first 4 weeks (weeks 12-20)) was “significant reduction of anxiety” and the “anxiety-related behavior versus control” value ([4]; first 4 weeks after infection) was “no significant difference”. For the same compound, the “systemic and neuropathology, treated versus untreated” value [5] was “no differences”, the “effect on SP induced sCD163 release” value [6] was “inhibited” and the “levels of pro-inflammatory cytokines (G-CSF, MIP-1α, IL-6, IL-8, TNFα)” value [7] was “reduced levels; also recorded: decrease; also recorded: significant reduction”. The “sCD163, plasma SP and PD-1 expression on CD4 T-cells” value [7] was “decrease; also recorded: reduction” and the receptor occupancy [8] was 97–99%.
